Consider 10 compounds from US20240228504A1, “SUBSTITUTED TRICYCLIC AMIDES, ANALOGUES THEREOF, AND METHODS USING SAME” (Arbutus Biopharma Corporation, priority 2020, published 2024).

Structures are written as SMILES.

In the experiment the test system is HBV rcDNA in HepDE19 cells. The experiment is described as follows: HepDE19 assay with bDNA quantitation of HBV rcDNA. It is filed as cell-based, hepatitis B virus. The conditions noted are these: HepDE19 assay, inhibition of rcDNA formation, bDNA quantitation; read-out: DE-19bDNA EC50.
Consider `CN(C(=O)c1cc2c(F)cccn2c1)C1C[S+]([O-])Cc2[nH]c(=O)c3cc(F)c(F)cc3c21` (single isomer, unassigned) [Compound 149, N-(8,9-Difluoro-3-oxido-6-oxo-1,4,5,6-tetrahydro-2H-thiopyrano[3,4-c]isoquinolin-1-yl)-8-fluoro-N-methylindolizine-2-carboxamide], for which the concentration giving a half-maximal response (EC50) came out at 0.15 µM.

Consider `CN(C(=O)c1cc2c(F)cccn2c1)C1C[S+]([O-])Cc2[nH]c(=O)c3cc(F)c(F)cc3c21` (single isomer, unassigned) [Compound 150, N-(8,9-Difluoro-3-oxido-6-oxo-1,4,5,6-tetrahydro-2H-thiopyrano[3,4-c]isoquinolin-1-yl)-8-fluoro-N-methylindolizine-2-carboxamide], for which the EC50 stood at 1.1 µM.

In the case of `CN(C(=O)c1cc2c(F)cccn2c1)C1CS(=O)(=O)Cc2[nH]c(=O)c3cc(F)c(F)cc3c21` (single isomer, unassigned) [Compound 151, N-(8,9-Difluoro-3,3-dioxido-6-oxo-2,4,5,6-tetrahydro-1H-thiopyrano[3,4-c]isoquinolin-1-yl)-8-fluoro-N-methylindolizine-2-carboxamide], the EC50 is 3.61 µM.

As for `CN(C(=O)c1cc2c(F)cccn2c1)C1CS(=O)(=O)Cc2[nH]c(=O)c3cc(F)c(F)cc3c21` (single isomer, unassigned) [Compound 152, N-(8,9-Difluoro-3,3-dioxido-6-oxo-2,4,5,6-tetrahydro-1H-thiopyrano[3,4-c]isoquinolin-1-yl)-8-fluoro-N-methylindolizine-2-carboxamide], the EC50 stood at 0.73 µM.

With `CN(C(=O)c1cc2c(F)cccn2c1)C1CNCc2[nH]c(=O)c3cc(F)c(F)cc3c21` (single isomer, unassigned) [Compound 160, N-(8,9-Difluoro-6-oxo-1,2,3,4,5,6-hexahydrobenzo[c][1,7]naphthyridin-1-yl)-8-fluoro-N-methylindolizine-2-carboxamide], the half-maximal effective concentration (EC50) was 16.2 µM.

For the compound `CN(C(=O)c1cc2c(F)cccn2c1)C1CNCc2[nH]c(=O)c3cc(F)c(F)cc3c21` (single isomer, unassigned) [Compound 161, N-(8,9-Difluoro-6-oxo-1,2,3,4,5,6-hexahydrobenzo[c][1,7]naphthyridin-1-yl)-8-fluoro-N-methylindolizine-2-carboxamide], the EC50 was 0.02 µM.

In the case of `CN(C(=O)c1cc2cc(F)ccn2c1)C1CNCc2[nH]c(=O)c3cc(F)c(F)cc3c21` (single isomer, unassigned) [Compound 162, N-(8,9-Difluoro-6-oxo-1,2,3,4,5,6-hexahydrobenzo[c][1,7]naphthyridin-1-yl)-7-fluoro-N-methylindolizine-2-carboxamide], the EC50 stood at 13.8 µM.

Consider `CN(C(=O)c1cc2cc(F)ccn2c1)C1CNCc2[nH]c(=O)c3cc(F)c(F)cc3c21` (single isomer, unassigned) [Compound 163, N-(8,9-Difluoro-6-oxo-1,2,3,4,5,6-hexahydrobenzo[c][1,7]naphthyridin-1-yl)-7-fluoro-N-methylindolizine-2-carboxamide], for which the EC50 is 0.03 µM.

As for `CN(C(=O)c1cc(F)c(Br)c(F)c1)C1CNCc2[nH]c(=O)c3cc(F)c(F)cc3c21` (single isomer, unassigned) [Compound 164, 4-Bromo-N-(8,9-difluoro-6-oxo-1,2,3,4,5,6-hexahydrobenzo[c][1,7]naphthyridin-1-yl)-3,5-difluoro-N-methylbenzamide], the EC50 is 2.88 µM.

For the compound `CN(C(=O)c1cc(F)c(Br)c(F)c1)C1CNCc2[nH]c(=O)c3cc(F)c(F)cc3c21` (single isomer, unassigned) [Compound 165, 4-Bromo-N-(8,9-difluoro-6-oxo-1,2,3,4,5,6-hexahydrobenzo[c][1,7]naphthyridin-1-yl)-3,5-difluoro-N-methylbenzamide], the EC50 was determined as 0.02 µM.
